Laboratory results: patent publication US20260007639A1, “COMPOUNDS FOR THE TREATMENT OF NEUROMUSCULAR DISORDERS” (NMD PHARMA A/S, priority 2017, published 2026)
Blank lines part the entries; values can stand above or below the molecule they belong to.

Columns and labels:
[1] = tested on: rat soleus muscles; test: Tubocurarine concentration required to depress nerve-stimulated force by 50% (Kd,tub), combination with neostigmine or pyridostigmine (Table 4); conditions: pre-incubation with 50 μM C8, 10 nM neostigmine or both
Procedure: Muscles from 4-week-old rats were stimulated to contract by activating the motor nerve with short duration pulses in field stimulation. Muscles contracted every 10 min for 2 s in response to 30 Hz stimulation. Four different experimental conditions were used. […] After this pre-incubation, increasing concentrations of tubocurarine were added to the bath solutions with 60 min (corresponding to six contractions) between each increase in tubocurarine. […] FIG. 5C similar to FIG. 5A but this muscle had been pre-incubated with neostigmine. […] The force integral (AUC) was determined at each tubocurarine concentration. Such AUC determinations were plotted against tubocurarine concentration for each muscle.
CIC-1 is a novel target in treatment of neuromuscular complications and it was therefore explored whether this approach for symptomatic treatment could be used in combination with existing symptomatic treatment approaches. […] To quantify the effect of compounds on tubocurarine sensitivity, the force at the different tubocurarine concentrations was determined. In plots of nerve-stimulated force against tubocurarine concentration (FIG. 5E) Kd, tub was determined by fitting four parameter sigmoidal functions to the data and the Kd, tub for the different compounds have been collected in Table 4.

[2] = tested on: rat soleus muscles; test: Recovery of nerve-stimulated force in isolated rat soleus muscles with ACh receptors inhibited by 2 μM rocuronium; conditions: 2 μM rocuronium alone; 8 muscles
Procedure: In a separate series of experiments with 8 isolated rat soleus muscles, ACh receptors were inhibited using 2 μM rocuronium, which is a clinically used neuromuscular blocking agent. Under these conditions the nerve-stimulated force was reduced to 51±5% of force before rocuronium. […] This illustrates the potential of these compounds to be used as reversal agents.

[3] = tested on: rat soleus muscles; test: Mg2+ concentration required to depress nerve-stimulated force by 50% (Kd,Mg2+), combination with 3,4-AP (Table 5); conditions: pre-incubation with 10 μM 3,4-AP
Procedure: Muscles from 4-week-old rats were stimulated to contract by activating the motor nerve with short duration pulses in field stimulation. Muscles contracted every 10 min for 2 s in response to 30 Hz stimulation. Four different experimental conditions were used. […] FIG. 6C similar to FIG. 6A but this muscle had been pre-incubated with 3,4-AP. […] The force integral (AUC) was determined at each extracellular Mg^2+ concentration. AUC was plotted against Mg^2+ concentration and the data was fitted to a sigmoidal function. This provided the extracellular Mg^2+ concentration that was required to reduce the nerve-stimulated force to 50% (Mg50) under the four different conditions (see Table 4).
While the use of tubocurarine mimics conditions with reduced neuromuscular transmission due to post-synaptic dysfunction (myasthenia gravis, neuromuscular blockade), the experiments with elevated extracellular Mg^2+ mimics conditions with pre-synaptic dysfunction akin to a range of neuromuscular disorders including Lambert Eaton syndrome, motor neuron disorders and polyneuropathy. […] Based on this it was determined whether recovery of nerve-stimulated force at elevated extracellular Mg^2+ with CIC-1 inhibiting compounds could be added to force recovery with 3,4-AP. […] To quantify the effect of compounds on Mg^2+ sensitivity the force at the different Mg^2+ concentrations was determined. […]

[4] = target: T1, CIC-1 channels (Rattus norvegicus, UniProt P35524); test: Electrophysiological measurement of compound inhibition of CIC-1 (Gm) in rat soleus muscle fibres: EC50 (Table 7)
T1 sequence (P35524 1-994): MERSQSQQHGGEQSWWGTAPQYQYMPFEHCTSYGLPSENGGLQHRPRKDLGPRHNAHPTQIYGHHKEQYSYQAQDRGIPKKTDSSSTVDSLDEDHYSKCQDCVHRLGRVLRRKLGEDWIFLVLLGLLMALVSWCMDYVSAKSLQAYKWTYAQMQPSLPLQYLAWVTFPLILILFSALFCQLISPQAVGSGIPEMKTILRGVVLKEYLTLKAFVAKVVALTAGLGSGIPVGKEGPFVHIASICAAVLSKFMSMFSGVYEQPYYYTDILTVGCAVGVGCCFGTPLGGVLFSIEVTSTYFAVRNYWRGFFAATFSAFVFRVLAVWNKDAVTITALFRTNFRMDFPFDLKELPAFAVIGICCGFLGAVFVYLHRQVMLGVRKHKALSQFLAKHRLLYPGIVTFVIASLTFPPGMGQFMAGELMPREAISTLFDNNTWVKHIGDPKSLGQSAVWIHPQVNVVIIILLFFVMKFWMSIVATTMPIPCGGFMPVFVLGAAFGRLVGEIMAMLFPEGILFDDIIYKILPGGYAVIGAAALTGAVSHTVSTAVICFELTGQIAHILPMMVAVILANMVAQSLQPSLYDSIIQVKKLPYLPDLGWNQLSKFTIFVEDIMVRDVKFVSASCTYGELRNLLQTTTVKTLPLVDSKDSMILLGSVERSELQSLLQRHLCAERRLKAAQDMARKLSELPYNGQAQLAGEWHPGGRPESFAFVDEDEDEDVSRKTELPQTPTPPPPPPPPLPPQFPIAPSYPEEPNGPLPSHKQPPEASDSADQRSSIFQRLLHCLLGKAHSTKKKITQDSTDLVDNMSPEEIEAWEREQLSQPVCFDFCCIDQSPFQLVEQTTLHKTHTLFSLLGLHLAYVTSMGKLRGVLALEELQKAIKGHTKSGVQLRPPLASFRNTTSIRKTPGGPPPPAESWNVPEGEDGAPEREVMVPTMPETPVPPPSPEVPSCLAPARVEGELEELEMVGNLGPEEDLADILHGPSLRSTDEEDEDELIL

[5] = tested on: rat soleus muscles; test: Recovery of force in isolated rat soleus nerve-muscle preparations after 115 nM tubocurarine, 50 μM compound (Table 8); conditions: 40 mins exposure
Procedure: Force traces from a representative muscle stimulated to contract in 1) control condition before addition of neuromuscular blocking agent, 2) the force response to stimulation after 90 minutes incubation with Tubocurarine. […] The traces presented in FIG. 12A (1, 2, 3), correspond to the dotted lines in FIG. 12B, respectively.
Recovery of force is quantified as the percentage of the force prior to tubocurarine that is recovered by the compound.
The current invention relates to compounds that inhibit CIC-1 ion channels and increase muscle excitability and thereby improve muscle function in clinical conditions where muscle activation is failing. Such conditions result in loss of contractile function of skeletal muscle, weakness and excessive fatigue. In this series of experiments the compounds were tested for their ability to restore contractile function of isolated rat muscle when the neuromuscular transmission had been compromised akin to neuromuscular disorders.
Experimentally, soleus muscles from 4-5 wk old rats were isolated with the motor nerve remaining attached. The nerve-muscle preparations were mounted in experimental setups that enabled electrical stimulation of the motor nerve. Stimulation of the motor nerve led to activation of the muscle fibres and ensuing force production that was recorded.
After mounting the nerve-muscle preparation in the experimental setup, the contractile function of the muscle was initially assessed under the control conditions (FIG. 2A). […] The experimental condition mimics the failing neuromuscular transmission in a range of neuromuscular disorders. After addition of tubocurarine the contractile force declined over the next 90 mins to 10-50% of the control force. 50 μM of the test compound was then added and the contractile force recovered despite the continued presence of tubocurarine. To quantify the ability of the compound to restore force the percentage of the initial force that was restored was determined after 40 mins of compound exposure (FIG. 2B) and the point increase is reported in Table 8.

[6] = tested on: female Lewis rats; test: In situ isometric hindlimb force in anaesthetised rats with neuromuscular transmission partially inhibited by Cisatracurium; type: in vivo, rat; conditions: 80 Hz stimulation, Cisatracurium infusion
Procedure: Isometric hindlimb force was measured in 12-week old female Lewis rats in the presence and absence of compound.
Rats were placed under anesthesia with isoflurane (2-4%), intubated and subsequently connected to a micro ventilator (Microvent 1, Hallowell EMC, US). Two stimulation electrodes were inserted through the skin to stimulate the sciatic nerve. A small incision was made proximal to the ankle, to expose the Achilles tendon, which was tied by cotton string, and connected to a force transducer (Fort250, World Precision Instruments) with adjustable position (Vernier control). The Achilles tendon was then cut distal to the attached cotton string. The rat was placed on a heated pad, and to prevent movement artefacts from contraction of the ankle dorsiflexors, the foot was fixated by tape on a footplate.
Muscle contractile properties were assessed by applying an electrical current (under supramaximal voltage conditions) to the nerve and recording the force generated by the muscle. The muscle was stretched until maximal force was obtained, when assessed by 2 Hz stimulation. Isometric force was measured every 30 seconds at 12 Hz (Twitch), 10 pulses, and at every 5 minutes at 80 Hz (Tetanic) for 1 second (80 pulses). This stimulation pattern was employed throughout the experiment, expect in few cases where 80 Hz stimulation was replaced by 12 Hz (10 pulses). […] When the level of neuromuscular inhibition was stable, the test article was injected i.v. at the chosen concentration. The effect of test article was assessed on its ability to increase force generated from the stimulation pattern applied. The effect was assessed in the ability to increase force per se (tetanic, 80 Hz, stimulation), and the ratio between individual twitch peaks (12 Hz stimulation). The effect was monitored for at least 1 hour after injection of test article. In addition, the time from injection of test article to maximal effect on force (both twitch and tetanic) was noted and the time for the effect to disappear (return to baseline), if possible. When appropriate the infusion of neuromuscular blocking agent was ceased, with the stimulation pattern continued, and the return of force to control levels was monitored. Animals were sacrificed by cervical dislocation while still fully sedated.

- EC50 [4]: 8.1 ± 1.2 µM
SMILES: CCOC[C@H](Oc1ccc(Br)cc1-c1ccon1)C(=O)O [Compound A-81, (2S)-2-[4-bromo-2-(1,2-oxazol-3-yl)phenoxy]-3-ethoxypropanoic acid]
- Point increase (%) of initial force that was restored [5]: 45%
- average increase in tetanic force ([6]; 26.5 mg/kg i.v.): 52.9%

- EC50 [4]: 4.3 µM
SMILES: O=C(O)[C@H](CC1CC1)Oc1ccc(Cl)cc1-c1ccon1 [Compound A-41, (2S)-2-[4-chloro-2-(1,2-oxazol-3-yl)phenoxy]-3-cyclopropylpropanoic acid]
- Point increase (%) of initial force that was restored [5]: 25%
- average increase in tetanic force ([6]; 40.0 mg/kg i.v.): 36.4%

Continued, molecule first:

SMILES: CN(C)C(=O)Oc1cccc([N+](C)(C)C)c1 [neostigmine, reference compound]
- nerve-stimulated force at different tubocurarine concentrations compared to control [1]: elevated nerve-stimulated force

SMILES: C=CC[N+]1([C@H]2C[C@H]3[C@@H]4CC[C@H]5C[C@H](O)[C@@H](N6CCOCC6)C[C@]5(C)[C@H]4CC[C@]3(C)[C@H]2OC(C)=O)CCCC1 [rocuronium, reference compound]
- nerve-stimulated force, % of force before rocuronium [2]: 51±5%

SMILES: Nc1ccncc1N [3,4-AP, 3,4-diaminopyridine]
- nerve-stimulated force at elevated Mg2+ compared to control [3]: remain elevated
